52 compounds from PubChem BioAssay AID1996 can be followed below.

In brackets after ≈: the same amount, converted by molar mass.

For this series the following is noted: buffer; pH 7.4; 200.0 µM.
A word on the kinetic solubility: it is the concentration staying in solution when a stock, usually in DMSO, is diluted into the medium. `O=C(c1ccc(NC(=O)C2(c3ccccc3)CCCC2)cc1)N1CCOCC1` had a kinetic solubility greater than 56.8 µg/mL.

Compound `CCCc1nc(SCC(=O)NC2CCCC2)c2ccccc2n1` yielded a kinetic solubility of 1.9 µg/mL (≈ 5.77 µM).

In turn, `FC(F)(F)c1ccc2c(c1)NCC1CCCN21` (configuration not stated) had a kinetic solubility of 13 µg/mL (≈ 53.7 µM).

`Cc1ccc([N+](=O)[O-])cc1NC(=O)C[n+]1ccccc1.[Cl-]` displayed a solubility (kinetic) greater than 46.2 µg/mL.

`COC(=O)C(Cc1ccccc1)NC(=O)CCC(=O)NC(C)CCc1ccccc1` (configuration not stated) registered a kinetic solubility greater than 61.6 µg/mL.

Turning to `N#CCc1ccc(Oc2ccc([N+](=O)[O-])cn2)cc1`, the kinetic solubility came out at 35.6 µg/mL (≈ 139 µM).

For the compound `CCn1c2ccccc2c2cc(NC(=O)C(=O)N3CCOCC3)ccc21`, the kinetic solubility was found to be 10.1 µg/mL (≈ 28.7 µM).

As to `Cc1ccc(S(=O)(=O)NCC[C@@]2(C)C3CCC2(C)C(=O)C3)cc1` (some centres not stated), the kinetic solubility is greater than 50.3 µg/mL.

`CCc1ccc(NC(=O)C(C)OC(=O)Cc2cc(OC)c(OC)c(OC)c2)cc1` (configuration not stated) came in with a solubility (kinetic) greater than 60.2 µg/mL.

For `COc1ccc(O)c(CNc2ccccc2F)c1`, the kinetic solubility turned out to be 34 µg/mL (≈ 138 µM).

Compound `O=C(Nc1ccc(-n2cccc2)cc1)C1CC1` came in with a solubility (kinetic) of 6.4 µg/mL (≈ 28.3 µM).

Compound `COc1ccc(N(Cc2cc3ccc(C)cc3[nH]c2=O)C(=O)C2CCCO2)cc1` (configuration not stated) returned a solubility (kinetic) of 10.1 µg/mL (≈ 25.7 µM).

In turn, `CSCC(C)N1CCC(CCC(=O)NC2CC2)CC1` (configuration not stated) had a solubility (kinetic) greater than 42.7 µg/mL.

Regarding `Cc1ccc(CNS(=O)(=O)c2ccccc2[N+](=O)[O-])cc1`, the solubility (kinetic) came to 38.7 µg/mL (≈ 126 µM).

On to `O=c1[nH]c2cc(NCCO)c([N+](=O)[O-])cc2[nH]1`, for which the solubility (kinetic) was greater than 35.7 µg/mL.

Regarding `Cc1nc2ccc(NC(=O)N3CCOCC3)cc2nc1C`, the solubility (kinetic) is greater than 42.9 µg/mL.

In the case of `O=C(CCCc1nc2ccccc2s1)Nc1ccccc1`, the kinetic solubility was determined as 9.9 µg/mL (≈ 33.4 µM).

In the case of `CCOc1ncccc1C(=O)Nc1cccc(S(=O)(=O)N2CCOCC2)c1`, the kinetic solubility amounted to 12 µg/mL (≈ 30.7 µM).

Compound `Clc1ccc(CN2CCCCCC2)cc1Cl` displayed a kinetic solubility of 9 µg/mL (≈ 34.9 µM).

For `COc1ccc(NC(=O)c2ccccc2NC(=O)c2cccs2)cc1`, the kinetic solubility was less than 0.4 µg/mL.

In turn, `COc1ccc(-n2c(C)nc3sc4c(c3c2=O)CCCC4)cc1` showed a kinetic solubility of 6.4 µg/mL (≈ 19.6 µM).

For the compound `COc1cccc(N2CN(CCc3ccccc3)CNC2=S)c1`, the solubility (kinetic) came to 9.8 µg/mL (≈ 29.9 µM).

Consider `CC1CC(C)CN(C(=O)CCn2c(=O)oc3ccccc32)C1` (configuration not stated), for which the kinetic solubility is greater than 45.4 µg/mL.

Compound `NC(=O)COC(=O)c1cc(=O)[nH]c2ccccc12` returned a kinetic solubility greater than 36.9 µg/mL.

Take `Cn1c(O)c(C=Nc2ccc(Br)cc2)c(=O)n(C)c1=O`: the solubility (kinetic) was 1.2 µg/mL (≈ 3.55 µM).

With `O=C(Nc1ccccc1)Nc1nc2ccccc2s1`, the kinetic solubility is less than 0.2 µg/mL.

On to `Cn1cc(S(=O)(=O)NCCc2ccccc2)c(=O)n(C)c1=O`, for which the solubility (kinetic) is greater than 48.5 µg/mL.

In turn, `Nc1n[nH]c(N)c1N=Nc1ccc(F)cc1` gave a kinetic solubility greater than 33 µg/mL.

As to `CCn1cc(CCC(=O)NCc2ccccc2OC)c2ccccc21`, the kinetic solubility turned out to be 30.5 µg/mL (≈ 90.7 µM).

Turning to `O=C(NC(=S)N1CCN(c2ccc(O)cc2)CC1)c1cccs1`, the kinetic solubility came to 41.7 µg/mL (≈ 120 µM).

Compound `CC(=O)OCC(=O)Nc1ccc(SC(F)F)cc1` came in with a solubility (kinetic) greater than 41.3 µg/mL.

On to `COc1cccc(Nc2nc(N)nc(CCl)n2)c1`, for which the solubility (kinetic) was greater than 39.9 µg/mL.

On to `O=C(Nc1ccc(NC(=O)c2cccs2)cc1Cl)c1ccco1`, for which the solubility (kinetic) was determined as 1.1 µg/mL (≈ 3.17 µM).

`COCc1cc(=O)[nH]c(-c2ccccc2OC(F)(F)F)n1`: the kinetic solubility is greater than 45 µg/mL.

Regarding `Nc1nccnc1C(=O)OCC(=O)NC1CCCc2ccccc21` (configuration not stated), the solubility (kinetic) worked out at 44.5 µg/mL (≈ 136 µM).

The compound `NCC(=O)Nc1ccc(Br)cc1` had a solubility (kinetic) of 27.6 µg/mL (≈ 120 µM).

`COC(=O)c1ccc(C(=O)OC)c(NC(=O)C(C)(C)C)c1` yielded a solubility (kinetic) of 3.9 µg/mL (≈ 13.3 µM).

`CCCC(C)NC(=O)Cc1ccccc1` (configuration not stated) yielded a solubility (kinetic) of 30 µg/mL (≈ 146 µM).

`O=C(Nc1cccc(C(F)(F)F)c1)c1sc(Cl)nc1C(F)(F)F`: the kinetic solubility was 36.3 µg/mL (≈ 96.9 µM).

`N#Cc1cccc(NC(=O)CCN2C(=O)C3CCCCC3C2=O)c1` (configuration not stated) gave a kinetic solubility greater than 48.8 µg/mL.

Turning to `CC(=O)c1ccc(NC(=O)Nc2ccc3c(c2)nc(C)n3C)cc1`, the kinetic solubility came out at 4.1 µg/mL (≈ 12.7 µM).

Compound `CC(C)C(NC(=O)CCN1C(=O)c2ccccc2C1=O)c1ccccc1` (configuration not stated) yielded a solubility (kinetic) of 18.3 µg/mL (≈ 52.2 µM).

`O=C(COC(=O)/C=C/c1ccco1)Nc1cc(S(=O)(=O)N2CCOCC2)ccc1Cl` returned a kinetic solubility of 2.7 µg/mL (≈ 5.94 µM).

In the case of `Cn1c(=O)[nH]c(=O)c2c1nc1n2CC(COc2ccc3ccccc3c2)O1` (configuration not stated), the kinetic solubility is 0.4 µg/mL (≈ 1.1 µM).

Compound `CCOC(=O)c1c(-c2ccc(C)s2)csc1N` yielded a solubility (kinetic) of 7.3 µg/mL (≈ 27.3 µM).

Compound `COc1ccc(-c2nc(-c3cccs3)no2)cc1` returned a kinetic solubility of less than 0.3 µg/mL.

With `N/C(=N/O)c1nc(N2CCCC2)nc(N2CCCC2)n1`, the kinetic solubility was greater than 41.6 µg/mL.

On to `Cc1c(Cl)cccc1NC(=S)NCCc1ccc(Cl)cc1`, for which the kinetic solubility is 0.4 µg/mL (≈ 1.18 µM).

Take `CC(C)[C@H](NC(=O)c1ccccc1)C(=O)OCC(=O)NCc1ccc2c(c1)OCO2`: the solubility (kinetic) is greater than 61.9 µg/mL.

Compound `O=C(NCCc1ccccc1)C(=O)c1c[nH]c2ccccc12` gave a kinetic solubility of 0.4 µg/mL (≈ 1.37 µM).

Compound `CC(C)NCc1cc(Br)ccc1OCc1ccccc1.Cl` came in with a solubility (kinetic) greater than 55.6 µg/mL.

Compound `Cc1ccc2oc(C(=O)N(C)Cc3ccon3)c(C)c2c1` yielded a kinetic solubility of 39.2 µg/mL (≈ 138 µM).
